This is an account of results in ChEMBL document CHEMBL5241100, “Sulfonamide derivatives as potential anti-cancer agents and their SARs elucidation” (Eur J Med Chem, 2021).

Molecules are shown by their SMILES. A value given as a limit tells only on which side of the number the result lay.

Data set [1] has as its target T1, Carbonic anhydrase 9 (Homo sapiens, UniProt Q16790).
Data set [2] is described as follows: Inhibition of topoisomerase 2 (unknown origin) assessed as relaxation of supercoiled kDNA incubated for 30 mins ethidium bromide staining based UV transilluminator analysis. The arrangement: species or system Homo sapiens.
Data set [3] deals with DNA topoisomerase 1 (Homo sapiens, UniProt P11387). The data set is described as follows: Inhibition of topoisomerase 1 (unknown origin) assessed as relaxation of supercoiled […] incubated for 30 mins ethidium bromide staining based UV transilluminator analysis.
Chain of DNA topoisomerase 1 (P11387 whole entry, the tested form may be a part): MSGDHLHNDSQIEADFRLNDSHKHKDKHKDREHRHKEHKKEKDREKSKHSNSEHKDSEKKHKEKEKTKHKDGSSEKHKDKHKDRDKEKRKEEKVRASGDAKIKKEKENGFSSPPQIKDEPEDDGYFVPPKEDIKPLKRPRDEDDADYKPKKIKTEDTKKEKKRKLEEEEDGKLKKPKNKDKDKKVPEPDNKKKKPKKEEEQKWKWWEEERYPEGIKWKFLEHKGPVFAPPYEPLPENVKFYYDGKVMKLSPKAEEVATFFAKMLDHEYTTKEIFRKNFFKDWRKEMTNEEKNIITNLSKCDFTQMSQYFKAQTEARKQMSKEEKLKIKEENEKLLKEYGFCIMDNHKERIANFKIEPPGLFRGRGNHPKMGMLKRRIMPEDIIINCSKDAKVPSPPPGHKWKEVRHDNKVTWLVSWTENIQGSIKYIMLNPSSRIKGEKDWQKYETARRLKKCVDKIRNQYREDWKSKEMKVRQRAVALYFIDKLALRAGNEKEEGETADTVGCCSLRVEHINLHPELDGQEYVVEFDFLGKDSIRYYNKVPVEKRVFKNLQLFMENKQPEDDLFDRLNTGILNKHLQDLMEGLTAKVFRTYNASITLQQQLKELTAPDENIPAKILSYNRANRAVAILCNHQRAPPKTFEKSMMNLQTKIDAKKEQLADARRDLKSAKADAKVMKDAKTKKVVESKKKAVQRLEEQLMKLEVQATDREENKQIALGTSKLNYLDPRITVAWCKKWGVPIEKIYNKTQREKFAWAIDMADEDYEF
In data set [4] the target is T2, Induced myeloid leukemia cell differentiation protein Mcl-1 (Homo sapiens, UniProt Q07820). The data set is described as follows: Inhibition of TAMRA-labeled BIM-BH3 peptide binding to 6His-tagged human recombinant Mcl-1 (171 to 327 residues) incubated for 120 mins by fluorescence polarization assay.
T2 sequence (Q07820 whole entry, the tested form may be a part): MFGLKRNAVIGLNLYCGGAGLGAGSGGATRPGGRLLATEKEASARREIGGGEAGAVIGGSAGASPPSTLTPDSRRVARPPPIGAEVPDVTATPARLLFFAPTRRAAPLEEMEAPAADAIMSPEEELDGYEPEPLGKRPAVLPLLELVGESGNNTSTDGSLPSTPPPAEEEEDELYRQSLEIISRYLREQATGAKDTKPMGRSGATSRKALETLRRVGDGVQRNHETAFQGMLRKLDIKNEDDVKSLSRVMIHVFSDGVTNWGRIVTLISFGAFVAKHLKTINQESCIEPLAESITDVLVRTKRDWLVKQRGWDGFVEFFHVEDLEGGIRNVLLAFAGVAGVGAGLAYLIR
For data set [5], the target named is T1, Carbonic anhydrase 9. The data set is described as follows: Inhibition of carbonic anhydrase 9 (unknown origin) using 4-nitrophenylacetate as substrate by UV/visible spectrophotometer analysis.
Data set [6] has as its target T2, Induced myeloid leukemia cell differentiation protein Mcl-1. The data set is described as follows: Inhibition of fluorescent-labeled BID-BH3 peptide binding to Mcl-1 (unknown origin) incubated for 20 mins by fluorescence polarization assay.
Data set [7] is described as follows: Oral bioavailability in mouse. The format is ADME, organism-based. To be noted: in vivo.
Data set [8] has as its system HepG2. The data set is described as follows: Antiproliferative activity against human HepG2 cells assessed as inhibition of cell growth by SRB assay. The format is functional, cell-based.
In data set [9] the target is Apoptosis regulator Bcl-2 (Homo sapiens, UniProt P10415). The data set is described as follows: Inhibition of fluorescent-labeled BID-BH3 peptide binding to Bcl-2 (unknown origin) by fluorescence polarization assay.
Chain of Apoptosis regulator Bcl-2 (P10415 whole entry): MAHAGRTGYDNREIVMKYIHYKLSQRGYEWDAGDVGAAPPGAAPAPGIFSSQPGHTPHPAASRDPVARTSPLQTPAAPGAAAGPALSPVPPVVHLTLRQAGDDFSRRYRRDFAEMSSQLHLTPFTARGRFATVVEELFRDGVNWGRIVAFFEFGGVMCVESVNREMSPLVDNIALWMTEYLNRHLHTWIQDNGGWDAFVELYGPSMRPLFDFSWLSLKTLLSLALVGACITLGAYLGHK
In data set [10] the test system is Jurkat. The format is functional, cell-based. To be noted: Homo sapiens, 72 h.
For data set [11], the system named is HL-60. It is filed as functional, cell-based. To be noted: Homo sapiens, HL-60, 72 h.
The subject of data set [12] is KG-1. It is filed as functional, cell-based. To be noted: Homo sapiens, KG-1, 72 h.
The test system of data set [13] is MOLT-4. The format is functional, cell-based. To be noted: Homo sapiens, MOLT-4, 72 h.
Data set [14] deals with T2, Induced myeloid leukemia cell differentiation protein Mcl-1. The data set is described as follows: Inhibition of fluorescent-labeled BID-BH3 peptide binding to Mcl-1 (unknown origin) by fluorescence polarization assay.
Data set [15] has as its system RS4-11. The format is functional, cell-based. To be noted: Homo sapiens, RS4-11, 72 h.
The subject of data set [16] is HSC-2. The data set is described as follows: Cytotoxicity against human HSC-2 cells assessed as reduction in cell viability by MTT assay. It is filed as functional.
The target of data set [17] is T1, Carbonic anhydrase 9. The data set is described as follows: Inhibition of human CA9.
For data set [18], the target named is Carbonic anhydrase 2 (Homo sapiens, UniProt P00918). The data set is described as follows: Inhibition of human CA2.
The target in data set [19] is Carbonic anhydrase 12 (Homo sapiens, UniProt O43570). The data set is described as follows: Inhibition of human CA12.
Chain of Carbonic anhydrase 12 (O43570 whole entry): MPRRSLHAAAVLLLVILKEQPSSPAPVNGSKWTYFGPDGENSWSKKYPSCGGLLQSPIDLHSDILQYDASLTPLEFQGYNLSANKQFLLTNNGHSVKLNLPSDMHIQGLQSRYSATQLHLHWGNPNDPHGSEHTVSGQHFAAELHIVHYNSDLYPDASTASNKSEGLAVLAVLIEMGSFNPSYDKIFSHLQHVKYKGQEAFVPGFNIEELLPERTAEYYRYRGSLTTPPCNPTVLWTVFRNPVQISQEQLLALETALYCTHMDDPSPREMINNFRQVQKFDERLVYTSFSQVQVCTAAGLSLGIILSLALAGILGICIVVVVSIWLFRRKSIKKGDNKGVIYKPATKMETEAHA
In data set [20] the target is Carbonic anhydrase 1 (Homo sapiens, UniProt P00915). The data set is described as follows: Inhibition of human CA1.
Chain of Carbonic anhydrase 1 (P00915 whole entry): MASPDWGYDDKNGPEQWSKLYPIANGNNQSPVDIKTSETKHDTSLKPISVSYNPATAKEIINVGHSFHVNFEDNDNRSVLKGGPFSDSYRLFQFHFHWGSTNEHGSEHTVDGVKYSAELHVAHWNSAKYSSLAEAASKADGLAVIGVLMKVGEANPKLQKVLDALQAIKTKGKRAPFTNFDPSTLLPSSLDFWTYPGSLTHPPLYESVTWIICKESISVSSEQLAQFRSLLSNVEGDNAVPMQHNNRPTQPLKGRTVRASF
Data set [21] relates to Ca9-22. The data set is described as follows: Cytotoxicity against human Ca9-22 cells assessed as reduction in cell viability by MTT assay. It is filed as functional.
Data set [22] deals with HCT-116. The data set is described as follows: cells. To be noted: Homo sapiens, HCT-116, 48 h.
Data set [23] deals with A-375. The data set is described as follows: Cytotoxicity against human A-375 cells assessed as inhibition of cell growth. The format is functional.
Data set [24] deals with T2, Induced myeloid leukemia cell differentiation protein Mcl-1. The data set is described as follows: Inhibition of FITC-labeled BID-BH3 peptide binding to Mcl-1 (unknown origin) by fluorescence polarization assay.
Data set [25] has as its target Aromatase (Homo sapiens, UniProt P11511). The data set is described as follows: Inhibition of human aromatase preincubated with NADPH regenerating system for 10 mins followed by substrate addition by fluorescence based analysis.
In data set [26] the test system is MOLM-13. The data set is described as follows: Antitumor activity against human MOLM-13 cells xenografted in mouse assessed as tumor growth inhibition administered with carfilzomib. The format is functional.
Data set [27] has as its system OPM-2. The data set is described as follows: Antitumor activity against firefly luciferase-labeled human OPM-2 cells xenografted in mouse assessed as tumor growth inhibition at 20 mg/kg, po administered once daily with carfilzomib at 3 mg/kg, iv administered twice weekly and measured after 19 days. To be noted: OPM-2, 456 h, time 19 day. The format is functional.

The nature of data set [28]: Half life in iv dosed mouse. The format is ADME, organism-based. To be noted: in vivo.

Chain of Aromatase (P11511 whole entry): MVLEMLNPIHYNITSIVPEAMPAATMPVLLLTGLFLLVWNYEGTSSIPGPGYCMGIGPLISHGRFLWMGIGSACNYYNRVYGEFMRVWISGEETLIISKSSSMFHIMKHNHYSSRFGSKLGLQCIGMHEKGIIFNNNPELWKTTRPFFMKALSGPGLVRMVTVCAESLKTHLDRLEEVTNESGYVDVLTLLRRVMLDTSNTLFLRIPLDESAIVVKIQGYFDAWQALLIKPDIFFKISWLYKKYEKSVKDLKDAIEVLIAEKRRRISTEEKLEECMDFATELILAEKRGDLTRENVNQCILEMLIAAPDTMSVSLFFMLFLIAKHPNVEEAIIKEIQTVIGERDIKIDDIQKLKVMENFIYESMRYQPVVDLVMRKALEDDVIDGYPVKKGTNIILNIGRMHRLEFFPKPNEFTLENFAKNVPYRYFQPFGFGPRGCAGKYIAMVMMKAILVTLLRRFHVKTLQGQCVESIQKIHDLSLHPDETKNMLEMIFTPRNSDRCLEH

Take `CO[C@@H]1O[C@H](Cn2cc(COc3ccc(S(N)(=O)=O)cc3)nn2)[C@@H](O)[C@H](O)[C@H]1O`: in [1], half-maximal inhibition (IC50) required 0.007 µM.
As for `CC1CCN(S(=O)(=O)c2ccc(-c3ccno3)cc2)CC1`, the results for the IC50 in data set [2] and in data set [3] were 33.6 µM and 27.8 µM, respectively.
Consider `CC(C)CN1C[C@H](c2ccc(Cl)cc2Cl)Oc2ccc(C(=O)O)cc21`, for which, in [4], the IC50 was found to be 2.1 µM.
Turning to `Nc1ccc(S(=O)(=O)Nc2ccsc2-c2nc(-c3ccccc3)no2)cc1`, in [5], 0.74 µM corresponded to half-maximal inhibition (IC50).
Compound `O=C(NS(=O)(=O)c1ccc(Cl)c([N+](=O)[O-])c1)c1nn(Cc2ccc(Cl)c(Cl)c2)c2ccccc12` showed a Ki in data set [6] of 0.43 µM.
Turning to `NS(=O)(=O)c1ccc(O)cc1`, the IC50 in data set [1] worked out at 32 µM.
`CC[C@@H]1CC/C=C/[C@H](O)[C@@H]2CC[C@H]2CN2C[C@@]3(CCCc4cc(Cl)ccc43)COc3ccc(cc32)C(=O)NS1(=O)=O` yielded a bioavailability in data set [7] of 6%.
For the compound `CC1CCN(S(=O)(=O)c2ccc(C(=O)c3coc4ccc(O)cc34)cc2)CC1`, the IC50 in data set [8] was 6.2 µM.
For the compound `N#Cc1ccc(CC2Cc3c(cc(Br)c(OCc4ccc(-c5ccccc5)cc4)c3Br)C[C@H]2C(=O)NS(=O)(=O)c2ccc(Cl)c([N+](=O)[O-])c2)cc1` (stereo not given in full), the figures for the Ki in data set [9] and in data set [14] were 0.45 µM and 0.35 µM, respectively. Further, the IC50 in data set [10], in data set [11], in [12], in data set [13] and in data set [15] was 12.8 µM each time.
`O=C(NS(=O)(=O)c1ccc(Cl)c([N+](=O)[O-])c1)[C@@H]1Cc2cc(Br)c(OCc3ccc(-c4ccccc4)cc3)c(Br)c2CC1Cc1ccc([N+](=O)[O-])cc1` (stereo not given in full): the figures for the Ki in data set [9] and in [14] were 0.41 µM and 0.26 µM, respectively. Further, the IC50 in [10], in [11], in [12], in data set [13] and in [15] was 12.8 µM each time.
For the compound `COc1cc(C2CC(c3ccc(F)cc3)=NN2c2ccc(S(N)(=O)=O)cc2)cc(OC)c1OC` (stereo not given), the CC50 in data set [16] and in [21] was 6.3 µM in each case. For the same compound, the Ki in [17] is no less than 0.044 µM; in [18], 0.089 µM; in data set [19], no less than 0.009 µM; in [20], no less than 0.23 µM.
For the compound `Cc1cc2c(C(C)C)c(O)c(O)c(C=O)c2c(O)c1-c1c(C)cc2c(C(C)C)c(O)c(O)c(C=O)c2c1O` [GOSSYPOL], the Ki in [6] was 0.45 µM.
In data set [22], `NS(=O)(=O)c1ccc(CC/N=C2\NC(=O)/C(=C3/C(=O)Nc4ccc(F)cc43)S2)cc1` had an IC50 of 3.67 µM.
Turning to `Cc1cc(S(=O)(=O)N2CC(C(=O)O)Cc3ccccc32)cc(C)c1Cl` (racemic), in data set [23], the GI50 amounted to 50 µM. In [24], the Ki worked out at 0.12 µM.
As for `COc1cc(C2CC(c3cccs3)=NN2c2ccc(S(N)(=O)=O)cc2)cc(OC)c1OC` (stereo not given), the CC50 in [16] and in [21] was 6.3 µM in each case. In addition, the Ki in data set [17] was no less than 0.044 µM; in [18], 0.089 µM; in data set [19] it was no less than 0.009 µM; in [20], no less than 0.23 µM.
`COc1cc2c(cc1OC)CN(S(=O)(=O)c1cccc(-n3cc(COc4ccc5ccccc5c4)nn3)c1)CC2` showed an IC50 in data set [25] of 0.07 µM.
In the case of `O=C1NSCCOCCCCCCN2C[C@@]3(CCc4cc(Cl)ccc43)COc3ccc1cc32`, the IC50 in data set [4] was determined as 0.01 µM.
Take `CO[C@H]1/C=C/C[C@H](C)[C@@H](C)S(=O)(=O)NC(=O)c2ccc3c(c2)N(C[C@@H]2CC[C@H]21)C[C@@]1(CCCc2cc(Cl)ccc21)CO3` [TAPOTOCLAX]: in data set [26], the “inhibition (INH)” value is given as 99%. In addition, the inhibition in vivo at 20 mg/kg in data set [27] stood at 99%. In data set [7], this compound gave a bioavailability of 32%. Besides, in data set [28], the half-life is 14 h.
